Source: publication PMC7445415 (2020)

What was measured:
[1] = test system: poly(dA-dT)2 (DNA, polymer) AT; experiment: ITC, one set of sites; conditions: Na+ (sodium cacodylate, I = 0.05 M); cacodylate pH 5.0, 298 K (293 K in Experimental); n fixed 0.2; polynucleotide as nucleobases; per base
[2] = test system: poly(dG-dC)2 (DNA, polymer) GC; experiment: ITC, one set of sites; conditions: Na+ (sodium cacodylate, I = 0.05 M); cacodylate pH 5.0, 298 K (293 K in Experimental); n fixed 0.2; polynucleotide as nucleobases; per base
[3] = test system: poly(A)-poly(U) (RNA, polymer) A/U; experiment: fluorescence titration, Scatchard fit; conditions: Na+ (sodium cacodylate, I = 0.05 M); cacodylate pH 5.0, 25 °C; 1 µM compound; n fixed 0.2; polynucleotide as nucleobases; per base
[4] = test system: poly(dA-dT)2 (DNA, polymer) AT; experiment: fluorescence titration, Scatchard fit; conditions: Na+ (sodium cacodylate, I = 0.05 M); cacodylate pH 5.0, 25 °C; 1 µM compound; n fixed 0.2; polynucleotide as nucleobases; per base
[5] = test system: poly(A)-poly(U) (RNA, polymer) A/U; experiment: ITC, one set of sites; conditions: Na+ (sodium cacodylate, I = 0.05 M); cacodylate pH 5.0, 298 K (293 K in Experimental); n fixed 0.2; polynucleotide as nucleobases; per base
[6] = test system: poly(A)-poly(U) (RNA, polymer) A/U; experiment: UV melting, 260 nm; conditions: Na+ (sodium cacodylate, I = 0.05 M); cacodylate pH 5.0; r = [NDI]/[polynucleotide] = 0.3; per base
[7] = test system: poly(dG-dC)2 (DNA, polymer) GC; experiment: fluorescence titration, Scatchard fit; conditions: Na+ (sodium cacodylate, I = 0.05 M); cacodylate pH 5.0, 25 °C; 1 µM compound; n fixed 0.2; polynucleotide as nucleobases; per base
[8] = test system: poly(dA-dT)2 (DNA, polymer) AT; experiment: UV melting, 260 nm; conditions: Na+ (sodium cacodylate, I = 0.05 M); cacodylate pH 5.0; r = [NDI]/[polynucleotide] = 0.3; per base

C[N+](C)(C)CCCN1C(=O)c2cc(NCCCC[C@H](N)C(=O)O)c3c4c(cc(Cl)c(c24)C1=O)C(=O)N(CCC[N+](C)(C)C)C3=O
logKs [1]: 6.8 | logKs [2]: 6.7 | logKs [3]: 6.4 | logKs [4]: 6.1 | logKs [5]: 6.6 | ∆Tm [6]: +25.1 ± 0.5 °C | logKs [7]: 6.6 | ∆Tm [8]: +28.2 ± 0.5 °C

C[N+](C)(C)CCCN1C(=O)c2cc(NCC[N+](C)(C)C)c3c4c(cc(Cl)c(c24)C1=O)C(=O)N(CCC[N+](C)(C)C)C3=O
logKs [1]: 6.4 | logKs [2]: 6.5 | logKs [3]: 6.2 | logKs [4]: 6.6 | logKs [5]: 6.7 | ∆Tm [6]: +30.3 ± 0.5 °C | logKs [7]: 6.4 | ∆Tm [8]: +35.4 ± 0.5 °C

C[N+](C)(C)CCCN1C(=O)c2cc(NC[C@H](N)C(=O)O)c3c4c(cc(Cl)c(c24)C1=O)C(=O)N(CCC[N+](C)(C)C)C3=O
logKs [1]: 6.3 | logKs [2]: 6.7 | logKs [3]: 6.0 | logKs [4]: 6.0 | logKs [5]: 5.9 | ∆Tm [6]: +17.5 ± 0.5 °C | logKs [7]: 7.2 | ∆Tm [8]: +21.6 ± 0.5 °C
